Reference: patent US10596296B2, “Heparan sulphates” (Agency for Science, Technology and Research, priority 2014, dated 2020)
“Also recorded” adds a separate entry of the source.

Key:
[1] = biological target: T1, TGF-β1 (Homo sapiens, UniProt P01137); assay: Differential scanning fluorimetry (DSF) of TGF-β1; assay type: binding
T1 construct: full length mature TGF-β1 is 112 amino acids in length
Protocol: DSF was performed on a 7500 Fast Real PCR System (software version 1.4, Applied Biosystems), as described previously (34,35). TGF-β1 (2.5 μM) was tested with or without heparin (25 μM). To facilitate the melting of TGF-β1, 10 mM of dithiothreitol (DTT) was added to the reaction mix. Experiments were run as previously described (34). First derivatives of the melting curves were calculated using Origin 7 (OriginLab Corp.) to determine the melting temperature of TGF-β1 under the various conditions.

[2] = system: TGF-β1 signaling (pSMAD2, pSMAD3) in hMSCs; assay: Western blotting of pSMAD2/pSMAD3 in hMSCs treated with TGF-β1 and GAG; assay type: cell-based, human; settings: 6, 12, 24 and 48 h
Protocol: Primary hMSCs (Lonza) were isolated from the bone marrow mononuclear cells of a young healthy adult human donor by plastic adherence and characterized as previously described (30,31). The adherent cells were maintained in a basal media consisting of DMEM-low glucose (1000 mg/l, DMEM-LG) supplemented with 10% fetal calf serum, 100 U/ml penicillin, 100 μg/ml streptomycin and 2 mM L-glutamine, and cultured under standard conditions at 37° C. and 5% CO2 in a humidified atmosphere. Media replacement was every three days. Cells were detached with 0.125% trypsin/Versene (pH 7.0) upon reaching 75-80% confluence, and re-plated at a density of 3,000 cells/cm^2 under the same culture conditions. All experiments were carried out with cells at passage 5.
Human MSCs were cultured in 6-well plates in basal media for 24 h at a density of 10,000 cells/cm^2. TGF-β1 treatments were then prepared at either 1 ng/ml or 5 ng/ml alone or in the presence of either 10 μg/ml or 40 μg/ml of full length heparin, or 1 ng/ml of TGF-β1 with 10 μg/ml size-fractionated or selectively desulfated heparin, HS^PM, HS16+ or HS16−, and incubated at room temperature for 10 min before being added to the cells. Latent TGF-β1 (LTGF-β1) treatments were similarly prepared at 3.3 ng/ml alone or with 10 μg/ml of the various GAGs described above. For inhibitor studies, the cells were pre-treated for 30 min with 10 μM SB431542 (Sigma-Aldrich) or DMSO before treatment with TGF-β1. […] Samples were then immunoblotted with antibodies against SMAD2/3 (#3102, Cell Signaling), phosphorylated SMAD2 (pSMAD2, #3108, Cell Signaling), phosphorylated SMAD3 (pSMAD3, #9520, Cell Signaling) and actin (MAB1501R, Millipore). Densitometry was carried out using Quantity One software (version 4.6.6, Bio-Rad).

[3] = system: chondrogenic differentiation of hMSCs; assay: qPCR of chondrogenic micromass pellets (Example 2); assay type: cell-based, human
Protocol: Total RNA was isolated from chondrogenic micromass pellets using TRIZOL reagent (Life Technologies, CA, USA) according to the manufacturer's protocol. Reverse transcription was carried out on 1 μg RNA using the SuperScript® VILO™ cDNA Synthesis Kit (Life Technologies) following the manufacturer's instructions, with the incubation at 42° C. being carried out for 2 h instead of 1 h. Each qPCR contained 40 ng cDNA, 1 μL TaqMan® primer-probe mix per gene, and 10 μL Taqman® Fast Universal PCR Master Mix (Life Technologies) in a final volume of 20 μL. Thermal cycling conditions were 95° C. for 20 s, followed by 45 cycles of 95° C. for 1 s and 60° C. for 20 s. Each qPCR was run in duplicate and gene expression was normalised to HPRT1 expression to obtain the ΔCt value. The average value of biological triplicates was taken. Chondrogenic micromass pellets cultured in media without GAG or TGF-β1 were used as controls (ΔΔCt). Relative expression levels for each primer set were expressed as fold changes by the 2-ΔΔCt method [Livak, K. J. and T. D. Schmittgen, Analysis of Relative Gene Expression Data Using Real-Time Quantitative PCR and the 2-ΔΔCT Method. Methods, 2001. 25(4): p. 402-408]. The following TaqMan® primer-probe assays (Life technologies) were used:
(§1) In order to assess the effects of HS16+ve on the chondrogenic differentiation of hMSCs in vitro, it was first necessary to establish the effects of TGF-β1 alone. Chondrogenic differentiation was carried out using a modified micromass culture system. [Zhang, L., et al., Chondrogenic differentiation of human mesenchymal stem cells: a comparison between micromass and pellet culture systems. Biotechnol Lett, 2010. 32(9): p. 1339-1346.]. Briefly, passage 4 hMSCs were harvested and resuspended in chemically defined chondrogenic media (PT-3003, Lonza, MD, USA) at 2×10^7 cells/mL. Droplets of 12.5 μL were then seeded into the middle of each well in a 24-well plate and left to adhere at 37° C. for 2 h, after which, 500 μL of chondrogenic media supplemented with either 1 or 10 ng/mL of TGF-β1 (100-210, PeproTech) alone or with either 5 or 10 μg/mL of heparin (Sigma-Aldrich), porcine mucosal HS (HSPM) (Celsus laboratories), HS16+ve or HS16-ve was added to each well. The cell droplets coalesced into spherical masses after 24 h. Media was changed every 3 days and the micromasses harvested on days 3, 7, 14 and 21.
Next, hMSCs were differentiated for 21 days in the presence of 1 ng/mL TGF-β1 alone (1 TGF-β1) or in combination with 10 μg/mL of GAG (heparin, HSPM, HS16+ve or HS16−ve) or with 10 ng/mL TGF-β1 (10 TGF-β1) as a positive control.

[4] = system: chondrogenic differentiation of hMSCs; assay: Alcian blue staining of chondrogenic micromass pellets; assay type: cell-based, human
Protocol: as §1

[5] = system: chondrogenic differentiation of hMSCs; assay: Wet weight of chondrogenic micromass pellets; assay type: cell-based, human; settings: 10 ng/mL TGF-β1 vs control; days 3, 7, 14 and 21
Protocol: as §1
Wet weights of the resulting control (Ctrl) and TGF-β1-treated (10 ng/mL) (TGF-β1) micromass pellets were taken at days 3, 7, 14 and 21 (FIG. 15).

[6] = 10 ng/mL TGF-β1, days 3, 7, 14 and 21

T1 sequence (P01137 279-390 limits assumed): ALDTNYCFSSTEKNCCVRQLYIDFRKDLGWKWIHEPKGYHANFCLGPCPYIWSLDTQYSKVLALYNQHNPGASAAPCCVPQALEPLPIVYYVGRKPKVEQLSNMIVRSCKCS

With “TGF-β1: transforming growth factor-β1 protein (PeproTech)” the “melting temperature of TGF-β1” value ([1]; with 10 mM DTT, without heparin) was 44 °C, the “melting temperature of TGF-β1 alone” value ([1]; without DTT) was 66 °C and the pSMAD2 signal ([2]; 1 ng/mL TGF-β1) was “quite intense at 6 h post treatment, and started to subside from 12 h onwards”. For the same substance, the pSMAD2 signal ([2]; 5 ng/mL and 10 ng/mL TGF-β1) was “remain saturated across all the time points tested”, the pSMAD3 signal ([2]; 5 ng/mL and 10 ng/mL TGF-β1) was “returned to background levels by 24 h” and the “Type II collagen transcripts” value ([3]; 10 ng/mL TGF-β1) was “only detectable in TGF-β1-treated pellets and undifferentiated hMSCs”. The “type X collagen transcripts relative to control pellets” value ([3]; 10 ng/mL TGF-β1) was “extremely high levels”, the “COMP expression relative to untreated control pellets” value [3, 6] was “increased expression” and the “SOX9 expression relative to untreated control pellets” value [3, 6] was “increased expression”. The “aggrecan expression relative to untreated control pellets” value ([3]; 10 ng/mL TGF-β1, days 7, 14 and 21) was “increased expression”, the “COMP expression, high (10 ng/mL) TGF-β1 relative to low dose TGF-β1 alone” value ([3]; 21 days) was “did not significantly alter COMP expression” and the “type X collagen expression, high TGF-β1 relative to low TGF-β1” value ([3]; day 21) was “significant increase”. For the same substance, the “GAG production by Alcian blue staining, 10 ng/mL vs 1 ng/mL TGF-β1” value ([4]; 21 days) was “increase in GAG production and deposition; also recorded: modest increase in GAG production”, the “GAG content by Alcian blue staining vs control pellets” value ([4]; day 21, 10 ng/mL TGF-β1) was “more GAGs” and the “wet weight of micromass pellets over time” value [5] was “weight loss was less pronounced”.
